Patent publication US4966900A, “Cephalosporin β-lactam compound and medicinal composition” (priority 1986, dated 1990)
Where a name gives a salt, the structure may show the parent alone. Read-outs that look alike come from different tables or passages of the source.

Columns and labels:
in vivo = assay: in vivo; design: species or system Macaco; conditions: monkey, 20 mg/kg
Description: Each of 20 mg/kg of the compounds obtained in Example 2, Example 25 and Example 28 was administered parenterally to Macaco and the half-time in blood was measured.
The concentrations of the compounds were measured according to HPLC method. Novapack C18 or Microbondapack C18 (trade name, produced by Waters Co.) was used as a column. Further, cefpiramide was used as a control drug.

E. cloacae 1Y247 = assay: MIC; type: cell-based
Description: (§1) The minimum inhibition concentrations (MIC) of the compounds obtained in the respective examples described above were measured according to the standard method of Japanese Chemotherapy Association.

S. aureus IAA498 = assay: MIC; type: cell-based; conditions: Staphylococcus aureus, Table 5
Description: as §1

S. aureus Smith = assay: MIC; conditions: Staphylococcus aureus
E. coli ML4707 = assay: MIC; conditions: Escherichia coli, ML4707, E. coli ML4707
E. coli GN5482 = assay: MIC; conditions: Escherichia coli, GN5482, E. coli GN5482
K. pneumoniae 4at521 = assay: MIC
E. colacae GN7471 = assay: MIC
E. cloacae 908RN = assay: MIC; conditions: Enterobacter cloacae
C. freundii GN7391 = assay: MIC; conditions: Citrobacter freundii, GN7391, C. freundii GN7391
S. marcescens GN10857 = assay: MIC; conditions: Serratia marcescens, GN10857, S. marcescens GN10857
P. vulgaris GN7919 = assay: MIC
P. aeruginosa GN10362 = assay: MIC
P. aeruginosa 4au542 = assay: MIC; conditions: Pseudomonas aeruginosa, 4AU542, P. aeruginosa 4au542
P. aeruginosa 5D58-1 = assay: MIC; conditions: Pseudomonas aeruginosa, 5D581, P. aeruginosa 5D58-1
P. cepacia OF189 = assay: MIC; conditions: Burkholderia cepacia, OF189, P. cepacia OF189
P. maltophilia OF247 = assay: MIC; conditions: Stenotrophomonas maltophilia
E. cloacae 5D52-2 = assay: MIC
E. cloacae 5D63-2 = assay: MIC
E. cloacae 1V25 = assay: MIC; conditions: Enterobacter cloacae
C. freundii 5D60-1 = assay: MIC
C. freundii 1R523 = assay: MIC
C. freundii 1R524 = assay: MIC
C. freundii 1R526 = assay: MIC
C. freundii 1R527 = assay: MIC
C. freundii 1U589 = assay: MIC
C. freundii 1U692 = assay: MIC
A. calcoaceticu OF1063 = assay: MIC; type: cell-based; conditions: Table 2, sodium salt
Description: (§2) The minimum inhibition concentrations (MIC) of the compounds obtained in Example 1 and Example 2 were measured according to the standard method of Japanese Chemotherapy Association.

A. xylosoxidans OF1001 = assay: MIC; type: cell-based; conditions: Achromobacter xylosoxidans, Table 2, sodium salt
Description: as §2

E. coli NIHJ JC-2 = assay: MIC; type: cell-based; conditions: Escherichia coli, NIHJJC2, Table 2, sodium salt
Description: as §2

[1] = Enterobacter cloacae, Table 6, read-out: MIC
[2] = Pseudomonas aeruginosa, GN10362
[3] = Enterobacter cloacae, Table 3, sodium salt, read-out: MIC
[4] = E. cloacae 908RN, Table 3, sodium salt
[5] = E. colacae 908RN, Table 2, sodium salt

Cc1cc(SCC2=C(C(=O)O)N3C(=O)C(NC(=O)C(=NOC(C)(C)C(=O)NNC(=O)c4ccc(O)c(O)c4)c4csc(N)n4)C3SC2)n2ncc(C(=O)O)c2n1 (stereo not shown) [Example 25, 7-{2-[2-amino-1,3-thiazol-4-yl]-2-[1-(3-(3,4-dihydroxybenzoyl)carbazoyl)-1-methylethoxyimino]acetamide}-3-[(3-carboxy-5-methylpyrazolo[1,5-a]pyrimidin-7-yl)thiomethyl]-3-cephem-4-carboxylic acid.hydrochloride]
12.5 µg/mL: MIC (E. cloacae 1Y247; [1]) | MIC (S. aureus IAA498)
0.025 µg/mL: MIC (P. aeruginosa GN10362; [2])
0.78 µg/mL: MIC (C. freundii 5D60-1; Citrobacter freundii, 5D601)
0.1 µg/mL: MIC (S. marcescens GN10857; Table 5) | MIC (P. aeruginosa 4au542; Table 5) | MIC (P. maltophilia OF247; Table 5) | MIC (C. freundii 1R524; Citrobacter freundii, 1R524) | MIC (C. freundii 1R527; Citrobacter freundii, 1R527)
< 0.006 µg/mL: MIC (E. coli ML4707; Table 5) | MIC (E. coli GN5482; Table 5) | MIC (K. pneumoniae 4at521; Klebsiella pneumoniae, 4AT521) | MIC (P. cepacia OF189; Table 5)
1.56 µg/mL: MIC (E. cloacae 908RN; E. colacae 908RN, Table 5)
0.05 µg/mL: MIC (P. aeruginosa 5D58-1; Table 5)
0.2 µg/mL: MIC (C. freundii 1R523; Citrobacter freundii, 1R523) | MIC (C. freundii 1R526; Citrobacter freundii, 1R526)
0.39 µg/mL: MIC (P. vulgaris GN7919; Proteus vulgaris, GN7919) | MIC (E. cloacae 5D52-2; Enterobacter cloacae, 5D522) | MIC (E. cloacae 5D63-2; Enterobacter cloacae, 5D632) | MIC (C. freundii 1U589; Citrobacter freundii, 1U589) | MIC (C. freundii 1U692; Citrobacter freundii, 1U692)
4 h: half-life (in vivo)
3.13 µg/mL: MIC (E. colacae GN7471; Table 5) | MIC (E. cloacae 908RN; E. cloacae 908RN, Table 6)
6.25 µg/mL: MIC (S. aureus Smith; Table 5) | MIC (C. freundii GN7391; Table 5) | MIC (C. freundii GN7391; Table 6) | MIC (E. cloacae 1V25)

CC(C)(ON=C(C(=O)NC1C(=O)N2C(C(=O)O)=C(CSc3c4c(nc5c(C(=O)O)cnn35)CCC4)CSC12)c1csc(N)n1)C(=O)NNC(=O)c1ccc(O)c(O)c1 (stereo not shown) [Example 28, 7-{2-[2-Amino-1,3-thiazol-4-yl]-2-[1-(3-(3,4-dihydroxybenzoyl)carbazoyl)-1-methylethoxyimino]acetamide}-3-[(3-carboxy-6,7-dihydro-5H-cyclopenta[f]pyrazolo[1,5-a]pyrimidin-8-yl)thiomethyl]-3-cephem-4-carboxylic acid.hydrochloride]
< 0.006 µg/mL: MIC (E. coli GN5482; Table 5) | MIC (K. pneumoniae 4at521; Klebsiella pneumoniae, 4AT521)
0.39 µg/mL: MIC (P. aeruginosa 4au542; Table 5) | MIC (P. maltophilia OF247; Table 5) | MIC (C. freundii 1U589; Citrobacter freundii, 1U589) | MIC (C. freundii 1U692; Citrobacter freundii, 1U692)
12.5 µg/mL: MIC (S. aureus Smith; Table 5) | MIC (C. freundii 5D60-1; Citrobacter freundii, 5D601)
1.56 µg/mL: MIC (E. cloacae 908RN; E. cloacae 908RN, Table 6) | MIC (C. freundii GN7391; Table 6)
0.1 µg/mL: MIC (P. aeruginosa 5D58-1; Table 5) | MIC (E. cloacae 5D52-2; Enterobacter cloacae, 5D522) | MIC (C. freundii 1R524; Citrobacter freundii, 1R524) | MIC (C. freundii 1R526; Citrobacter freundii, 1R526) | MIC (C. freundii 1R527; Citrobacter freundii, 1R527)
0.05 µg/mL: MIC (P. aeruginosa GN10362; [2])
0.012 µg/mL: MIC (E. coli ML4707; Table 5) | MIC (P. cepacia OF189; Table 5)
4.7 h: half-life (in vivo)
0.78 µg/mL: MIC (E. cloacae 1Y247; [1]) | MIC (E. colacae GN7471; Table 5) | MIC (E. cloacae 908RN; E. colacae 908RN, Table 5) | MIC (C. freundii GN7391; Table 5) | MIC (P. vulgaris GN7919; Proteus vulgaris, GN7919)
25 µg/mL: MIC (S. aureus IAA498)
0.2 µg/mL: MIC (S. marcescens GN10857; Table 5) | MIC (E. cloacae 5D63-2; Enterobacter cloacae, 5D632) | MIC (E. cloacae 1V25) | MIC (C. freundii 1R523; Citrobacter freundii, 1R523)

Cc1cc(SCC2=C(C(=O)O)N3C(=O)C(NC(=O)C(=NOC(C)(C)C(=O)NNC(=O)c4ccc(O)c(O)c4)c4csc(N)n4)C3SC2)n2nc(C(=O)O)nc2n1 (stereo not shown) [Example 2]
0.2 µg/mL: MIC (S. marcescens GN10857; Table 2, sodium salt) | MIC (P. aeruginosa GN10362; [2]) | MIC (P. aeruginosa 4au542; Table 2, sodium salt) | MIC (P. maltophilia OF247; Table 2, sodium salt) | MIC (E. cloacae 5D52-2; Enterobacter cloacae, 5D522)
0.1 µg/mL: MIC (E. coli NIHJ JC-2) | MIC (E. coli GN5482; Table 2, sodium salt)
0.78 µg/mL: MIC (A. xylosoxidans OF1001) | MIC (P. vulgaris GN7919; Proteus vulgaris, GN7919) | MIC (E. cloacae 5D63-2; Enterobacter cloacae, 5D632) | MIC (C. freundii 1R524; Citrobacter freundii, 1R524) | MIC (C. freundii 1R526; Citrobacter freundii, 1R526) | MIC (C. freundii 1R527; Citrobacter freundii, 1R527) | MIC (C. freundii 1U589; Citrobacter freundii, 1U589)
6.25 µg/mL: MIC (E. cloacae 1Y247; [3]) | MIC (S. aureus Smith; Table 2, sodium salt) | MIC (E. colacae GN7471; Table 2, sodium salt) | MIC (E. cloacae 1V25)
12.5 µg/mL: MIC (C. freundii GN7391; Table 2, sodium salt) | MIC (C. freundii GN7391; Table 3, sodium salt)
5.3 h: half-life (in vivo)
0.012 µg/mL: MIC (K. pneumoniae 4at521; Klebsiella pneumoniae, 4AT521)
0.39 µg/mL: MIC (P. aeruginosa 5D58-1; Table 2, sodium salt)
< 0.006 µg/mL: MIC (P. cepacia OF189; Table 2, sodium salt)
3.13 µg/mL: MIC (A. calcoaceticu OF1063) | MIC (E. cloacae 908RN; [4])
0.01 µg/mL: MIC (E. coli ML4707; Table 2, sodium salt)
1.56 µg/mL: MIC (E. cloacae 908RN; [5]) | MIC (C. freundii 5D60-1; Citrobacter freundii, 5D601) | MIC (C. freundii 1R523; Citrobacter freundii, 1R523) | MIC (C. freundii 1U692; Citrobacter freundii, 1U692)

Cc1cc(SCC2=C(C(=O)O)N3C(=O)C(NC(=O)C(=NOC(C)(C)C(=O)NNC(=O)c4ccc(O)c(O)c4)c4csc(N)n4)C3SC2)n2ncnc2n1 (stereo not shown) [Example 12, 7-{2-[2-Amino-1,3-thiazol-4-yl]-2-[1-(3-(3,4-dihydroxybenzoyl)carbazoyl)-1-methylethoxyimino]acetamide}-3-[(5-methyl-s-triazolo[1,5-a]-pyrimidin-7-yl)thiomethyl]-3-cephem-4-carboxylic acid.hydrochloride]
0.2 µg/mL: MIC (P. aeruginosa 4au542; Table 5) | MIC (P. aeruginosa 5D58-1; Table 5) | MIC (E. cloacae 5D52-2; E. cloacae 5D52-2, Table 6) | MIC (E. cloacae 5D52-2; Enterobacter cloacae, 5D522)
0.78 µg/mL: MIC (A. xylosoxidans OF1001) | MIC (S. aureus Smith; Table 2, sodium salt) | MIC (P. vulgaris GN7919; P. vulgaris Gn7919, Table 5) | MIC (P. vulgaris GN7919; Proteus vulgaris, GN7919) | MIC (P. maltophilia OF247; Table 2, sodium salt) | MIC (C. freundii 1R523; C. freundii 1R523, Table 6) | MIC (C. freundii 1R523; Citrobacter freundii, 1R523) | MIC (C. freundii 1R524; C. freundii 1R524, Table 6) | MIC (C. freundii 1R524; Citrobacter freundii, 1R524) | MIC (C. freundii 1R527; C. freundii 1R527, Table 6) | MIC (C. freundii 1R527; Citrobacter freundii, 1R527)
0.39 µg/mL: MIC (S. marcescens GN10857; Table 5) | MIC (P. maltophilia OF247; Table 5)
0.1 µg/mL: MIC (E. coli NIHJ JC-2) | MIC (E. coli GN5482; Table 2, sodium salt) | MIC (P. aeruginosa GN10362; P. aeruginosa GN10362, Table 5) | MIC (P. aeruginosa GN10362; [2]) | MIC (P. aeruginosa 4au542; Table 2, sodium salt) | MIC (P. aeruginosa 5D58-1; Table 2, sodium salt)
6.25 µg/mL: MIC (S. aureus IAA498) | MIC (C. freundii GN7391; Table 5)
3.13 µg/mL: MIC (S. aureus Smith; Table 5) | MIC (E. colacae GN7471; Table 2, sodium salt) | MIC (E. cloacae 908RN; [4]) | MIC (E. cloacae 908RN; E. cloacae 908RN, Table 6) | MIC (E. cloacae 908RN; [5]) | MIC (E. cloacae 908RN; E. colacae 908RN, Table 5) | MIC (E. cloacae 5D63-2; E. cloacae 5D63-2, Table 6) | MIC (E. cloacae 5D63-2; Enterobacter cloacae, 5D632) | MIC (C. freundii 5D60-1; C. freundii 5D60-1, Table 6) | MIC (C. freundii 5D60-1; Citrobacter freundii, 5D601) | MIC (C. freundii 1U692; C. freundii 1U692, Table 6) | MIC (C. freundii 1U692; Citrobacter freundii, 1U692)
1.56 µg/mL: MIC (E. colacae GN7471; Table 5) | MIC (S. marcescens GN10857; Table 2, sodium salt) | MIC (C. freundii 1R526; C. freundii 1R526, Table 6) | MIC (C. freundii 1R526; Citrobacter freundii, 1R526) | MIC (C. freundii 1U589; C. freundii 1U589, Table 6) | MIC (C. freundii 1U589; Citrobacter freundii, 1U589)
0.012 µg/mL: MIC (E. coli ML4707; Table 2, sodium salt) | MIC (E. coli GN5482; Table 5) | MIC (K. pneumoniae 4at521; K. pneumoniae 4at521, Table 5) | MIC (K. pneumoniae 4at521; Klebsiella pneumoniae, 4AT521) | MIC (P. cepacia OF189; Table 5)
< 0.006 µg/mL: MIC (E. coli ML4707; Table 5)
0.025 µg/mL: MIC (P. cepacia OF189; Table 2, sodium salt)
12.5 µg/mL: MIC (A. calcoaceticu OF1063) | MIC (C. freundii GN7391; Table 2, sodium salt)
25 µg/mL: MIC (E. cloacae 1Y247; [3]) | MIC (E. cloacae 1Y247; Table 6) | MIC (C. freundii GN7391; Table 3, sodium salt) | MIC (C. freundii GN7391; Table 6)
